Data: paper PMC7823661 (Viruses, 2020)
Structures can show the parent of a compound that is named as a salt.

Key:
[1] = Cytotoxicity assay (PrestoBlue) in mock-infected Vero cells; format: cell-based; conditions: African green monkey, Vero cells (kidney)
[2] = tested on: Brazilian ZIKV strain (ZIKV-BR) in Vero cells; assay: Plaque-forming reduction assay, supernatants of infected Vero cells; format: cell-based, Zika virus; conditions: MOI 1, 12 µM, 48 h; for inhibition at 12 µM: Zika virus, read-out: Vero cells PFR (%)
[3] = Cytotoxicity assay (PrestoBlue) in mock-infected cervical cells; format: cell-based; conditions: human
[4] = tested on: Brazilian ZIKV strain (ZIKV-BR) in cervical cells; assay: Plaque-forming reduction assay, supernatants of infected cervical cells; format: cell-based, Zika virus; conditions: for inhibition at 6 µM / inhibition at 12 µM / inhibition at 25 µM / EC50 / EC90: Zika virus; for inhibition at 6 µM: MOI 10, 6 µM; for inhibition at 6 µM / inhibition at 12 µM / inhibition at 25 µM: read-out: Cervical cells PFR (%); for inhibition at 25 µM: MOI 10, 25 µM; for EC50 / EC90: plaque-forming reduction, MOI 10, 48 h
[5] = tested on: Brazilian ZIKV strain (ZIKV-BR) in cervical cells; assay: Viral genome detection by RT-qPCR in supernatants of infected cervical cells; format: cell-based, Zika virus; conditions: supernatant of cervical cells; for reduction of viral load: 12 µM, compared to control; for ZIKV genome copies/mL: MOI 10, 12 µM, 48 h, control 6.7 ± 0.7 × 10^8
[6] = tested on: Brazilian ZIKV strain (ZIKV-BR) in cervical cells; format: cell-based, Zika virus; conditions: ZIKV-BR MOI 10, 12 µM, 48 h, versus 0.12% DMSO
[7] = tested on: ZIKV strain MR766 in Vero cells; design: method as in earlier work; conditions: cited from earlier work
[8] = tested on: baby hamster kidney cells (BHK-21); conditions: cited from earlier work
ZIKV-BR in Vero cells = conditions: read-out: concentration giving 50% of viral inhibition, MOI 0.1; cited from earlier work
[9] = tested on: P. falciparum W2-chloroquine-resistant clone; conditions: in vitro, read-out: IC50 antiplasmodial; cited from earlier work
[10] = C33-A cervical epithelial cells (mock-infected), mock-infected cervical cells, 48 h, PrestoBlue, read-out: CC50 (μM)/48 h Cervical

SMILES	CC50 at 48 h [1] [µM]	inhibition at 12 µM [2] [%]	CC50 at 48 h [3, 10] [µM]	inhibition at 6 µM ([4]; 48 h, 48 h) [%]	inhibition at 12 µM ([4]; 48 h, MOI 10, 12 µM, 48 h) [%]	inhibition at 25 µM ([4]; 48 h, 48 h) [%]	EC50 [4] [µM]	EC90 [4] [µM]	reduction of viral load [5] [logs]	ZIKV genome copies/mL [5]	Cervical cells IS (selectivity index, CC50/EC50) [4]	reduction of infected cells [6]	Vero cells PFR (%) [2] [%]	EC50 [7] [µM]	CC50 at 48 h [3] [µM]	Cervical cells PFR (%) ([4]; MOI 10, 12 µM, 48 h)	CC50 [8] [µM]	EC50 (ZIKV-BR in Vero cells) [µM]	IC50 [9] [µM]
Cc1ccc(S(=O)(=O)NCCCNc2ccnc3cc(Cl)ccc23)cc1 [C-Sd1, N-(3-((7-chloroquinolin-4-yl)amino)propyl)-4-methyl-benzenesulfonamide]	97 ± 0.5	100	130 ± 2	75.3 ± 1.3	94.2 ± 0.5	100	3.6 ± 0.2	9.6 ± 0.6	2	1.0 ± 0.1 × 10^6 copies/mL									
O=S(=O)(NCCCNc1ccnc2cc(Cl)ccc12)c1ccc(Br)cc1 [C-Sd2, 4-Bromo-N-(3-((7-chloroquinolin-4-yl)amino)propyl)-benzenesulfonamide]	56.7 ± 0.4	100	112 ± 1.8	80.8 ± 0.8	93.7 ± 0.3	100	3.3 ± 0.2	7.8 ± 0.4	2	2.8 ± 0.4 × 10^6 copies/mL									
O=S(=O)(NCCCNc1ccnc2cc(Cl)ccc12)c1ccc(F)cc1 [C-Sd3, N-(3-((7-chloroquinolin-4-yl)amino)propyl)-4-fluorobenzenesulfonamide]	141 ± 4.4	100	> 200	75 ± 1	94 ± 0.7	100	3.7 ± 0.1	10.1 ± 0.1	2	4.9 ± 0.3 × 10^6 copies/mL									
O=S(=O)(NCCCCNc1ccnc2cc(Cl)ccc12)c1ccccc1 [C-Sd4, N-(4-((7-chloroquinolin-4-yl)amino)butyl)-benzenesulfonamide]	143 ± 1.3	100	> 200	56.6 ± 0.5	92.5 ± 0.2	100	5 ± 0.2	11.6 ± 0.1	2	5.1 ± 0.6 × 10^6 copies/mL									
O=S(=O)(NCCCCNc1ccnc2cc(Cl)ccc12)c1ccc(Cl)cc1 [C-Sd5, 4-Chloro-N-(4-((7-chloroquinolin-4-yl)amino)butyl)-benzenesulfonamide]	52.2 ± 3.2	100	> 200	82.3 ± 0.3	99.5 ± 0.2	100	3.2 ± 0.1	7.2 ± 0.1	3	2.0 ± 0.4 × 10^5 copies/mL	> 62.5								
O=S(=O)(NCCCCNc1ccnc2cc(Cl)ccc12)c1ccc(Br)cc1 [C-Sd6, 4-Bromo-N-(4-((7-chloroquinolin-4-yl)amino)butyl)-benzenesulfonamide]	43.2 ± 0.4	100	> 200	82 ± 0.5	94.8 ± 0.5	100	3.3 ± 0.1	7.4 ± 0.2	3	2.0 ± 0.2 × 10^5 copies/mL	> 60.6	over 88%							
O=S(=O)(NCCCCNc1ccnc2cc(Cl)ccc12)c1ccc(F)cc1 [C-Sd7, N-(4-((7-chloroquinolin-4-yl)amino)butyl)-4-fluorobenzenesulfonamide]	74.8 ± 1.2	100	> 200	75.1 ± 0.8	94.7 ± 0.7	100	3.6 ± 0.1	9.9 ± 0.2	2	2.6 ± 0.5 × 10^6 copies/mL									
OC(c1cc(C(F)(F)F)nc2c(C(F)(F)F)cccc12)C1CCCCN1 [Mefloquine, (R)-(2.8-bis(trifluoromethyl)quinolin-4-yl)((S)-piperidin-2-yl)methanol hydrochloride, reference compound]	26.7 ± 0.9	100		97.7 ± 0.3	100		1.6 ± 0.1	3.5 ± 0.2		2.0 ± 0.6 × 10^5 copies/mL	30.5	96.3% ± 3.7	100	3.9 ± 0.2	48.8 ± 0.2	100	17.7 ± 3.5		
CCN(CC)CCCC(C)Nc1ccnc2cc(Cl)ccc12 (centres unmarked) [chloroquine]																		12 ± 3.2	
COc1ncnc(NS(=O)(=O)c2ccc(N)cc2)c1OC [sulfadoxine]																			> 15.5
